In patent US20110201818A1, “POLO-LIKE KINASE INHIBITORS” (TAKEDA PHARMACEUTICAL COMPANY LIMITED, priority 2007, published 2011):

The compounds below were run against T1, human PLK1 (Homo sapiens, UniProt P53350) (assay: PLK1 in vitro enzymatic activity assay (phosphorylation of alpha casein by recombinant PLK1)). Details: recombinant FLAG-tagged PLK1, alpha casein substrate, 500 nmol/L ATP, 40 min at room temperature; read-out: pIC50 (PLK1) (converted).
T1 construct: FLAG (DYKDDDDK) (N); made in house; host or cells: Sf21 insect cells, recombinant baculovirus (pFASTBAC1, Bac-to-Bac)
Assay type: biochemical
Procedure: PCR was performed using the vector as a template. […] After XbaI and XhoI digestion of the PCR product, the fragment was subcloned into pFASTBAC1 (Invitrogen, USA). Recombinant baculoviruses were prepared according to the procedure of the Bac-to-Bac baculovirus expression system (Invitrogen, USA). Sf21 cells were purchased from Invitrogen and grown in Sf-900 II SFM medium containing 10% fetal bovine serum, 50 μg/mL gentamicin and 0.1% pluronic F-68 (Invitrogen, USA) at 28° C. For preparation of PLK1 enzyme, Sf21 cells were infected with recombinant baculoviruses and cultured at 28° C. for 72 h.
The inhibition of PLK1 by the compounds was determined with the following assay that measures the phosphorylation of alpha casein by recombinant PLK1. Kinase reactions were performed at room temperature for 40 min in the kinase reaction buffer (25 mmol/L HEPES, pH 7.5, 10 mmol/L magnesium acetate, 1 mmol/L dithiothreitol) containing 50 ng PLK1 enzyme, 0.1 μCi [γ-^32P]ATP, 500 nmol/L ATP and 3 μg alpha casein (MP Biomedicals Inc., USA) in a final volume of 50 μL. The incubation was terminated by the addition of 10% trichloroacetic acid (Wako, Japan). Phosphorylated proteins were filtrated in GF/C filter plates (Packard, USA) with a Cell harvester (Packard, USA) and washed out free [γ-^32P]-ATP with 250 mmol/L phosphoric acid. Then, the plates were air dried for 60 min at 45° C., followed by the addition of 20 μL of MicroScint-O (Packard, USA). The radioactivity was counted by a Top-count scintillation counter (Packard, USA).

T1 sequence (P53350 with tags, fused parts or gaps): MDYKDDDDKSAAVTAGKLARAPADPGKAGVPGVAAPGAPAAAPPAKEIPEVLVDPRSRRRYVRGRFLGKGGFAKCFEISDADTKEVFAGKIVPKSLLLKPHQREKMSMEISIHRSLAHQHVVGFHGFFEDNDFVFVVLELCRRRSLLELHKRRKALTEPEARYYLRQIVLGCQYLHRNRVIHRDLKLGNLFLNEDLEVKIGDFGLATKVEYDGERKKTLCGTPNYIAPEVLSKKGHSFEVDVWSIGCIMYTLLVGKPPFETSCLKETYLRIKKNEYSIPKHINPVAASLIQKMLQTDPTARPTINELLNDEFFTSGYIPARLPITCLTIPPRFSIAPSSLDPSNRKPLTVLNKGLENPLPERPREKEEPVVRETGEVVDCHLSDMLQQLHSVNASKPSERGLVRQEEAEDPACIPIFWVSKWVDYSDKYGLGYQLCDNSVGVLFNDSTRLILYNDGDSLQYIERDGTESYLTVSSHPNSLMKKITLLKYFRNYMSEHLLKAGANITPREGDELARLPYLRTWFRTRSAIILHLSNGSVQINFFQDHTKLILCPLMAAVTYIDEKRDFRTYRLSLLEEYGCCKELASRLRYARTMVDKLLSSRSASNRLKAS

| SMILES | IC50 |
| --- | --- |
| COc1cc(C(=O)NC2CCN(CC(=O)N(C)C)CC2)ccc1Nc1ncc2c(n1)N(C1CCCC1)CC(F)(F)C(=O)N2C [Compound 115, 4-(9-cyclopentyl-7,7-difluoro-5-methyl-6-oxo-6,7,8,9-tetrahydro-5H-pyrimido[4,5-b][1,4]diazepin-2-ylamino)-N-(1-(2-(dimethylamino)-2-oxoethyl)piperidin-4-yl)-3-methoxybenzamide] | > 2 nM |
| COc1cc(C(=O)NC2CCNCC2)ccc1Nc1ncc2c(n1)N(C1CCCC1)CC(F)(F)C(=O)N2C [Compound 10, 4-(9-cyclopentyl-7,7-difluoro-5-methyl-6-oxo-6,7,8,9-tetrahydro-5H-pyrimido[4,5-b][1,4]diazepin-2-ylamino)-3-methoxy-N-(piperidin-4-yl)benzamide] | ≤ 2 nM |
| CN1C(=O)C(F)(F)CN(C2CCCC2)c2nc(Nc3ccc4[nH]ccc4c3)ncc21 [Compound 20, 2-(1H-Indol-5-ylamino)-9-cyclopentyl-7,7-difluoro-5-methyl-8,9-dihydro-5H-pyrimido[4,5-b][1,4]diazepin-6(7H)-one] | > 2 nM |
| C=C[C@@]1(F)CN(C2CCCC2)c2nc(Nc3ccc(C(=O)NC4CCN(CCO)CC4)cc3OC)ncc2N(C)C1=O [Compound 106, (R)-4-(9-cyclopentyl-7-fluoro-5-methyl-6-oxo-7-vinyl-6,7,8,9-tetrahydro-5H-pyrimido[4,5-b][1,4]diazepin-2-ylamino)-N-(1-(2-hydroxyethyl)piperidin-4-yl)-3-methoxybenzamide] | > 2 nM |
| COc1cc(C(=O)NN2CCCCC2)ccc1Nc1ncc2c(n1)N(C1CCCCC1)CC(F)(F)C(=O)N2C [Compound 64, 4-(9-cyclohexyl-7,7-difluoro-5-methyl-6-oxo-6,7,8,9-tetrahydro-5H-pyrimido[4,5-b][1,4]diazepin-2-ylamino)-3-methoxy-N-(piperidin-1-yl)benzamide] | ≤ 2 nM |
| COc1cc(C(=O)N[C@H]2CCCNC2)ccc1Nc1ncc2c(n1)N(C1CCCC1)CC(F)(F)C(=O)N2C [Compound 9, (S)-4-(9-cyclopentyl-7,7-difluoro-5-methyl-6-oxo-6,7,8,9-tetrahydro-5H-pyrimido[4,5-b][1,4]diazepin-2-ylamino)-3-methoxy-N-(piperidin-3-yl)benzamide] | ≤ 2 nM |
| COc1cc(C(=O)NC2CCN(CCO)CC2)ccc1Nc1ncc2c(n1)N(C1CCCCC1)CC(F)(F)C(=O)N2C [Compound 44, 4-(9-cyclohexyl-7,7-difluoro-5-methyl-6-oxo-6,7,8,9-tetrahydro-5H-pyrimido[4,5-b][1,4]diazepin-2-ylamino)-N-(1-(2-hydroxyethyl)piperidin-4-yl)-3-methoxybenzamide] | ≤ 2 nM |
| C=C[C@@]1(F)CN(C2CCCC2)c2nc(Nc3ccc(C(=O)NC4CCN(CC)CC4)cc3OC)ncc2N(C)C1=O [Compound 105, (R)-4-(9-cyclopentyl-7-fluoro-5-methyl-6-oxo-7-vinyl-6,7,8,9-tetrahydro-5H-pyrimido[4,5-b][1,4]diazepin-2-ylamino)-N-(1-ethylpiperidin-4-yl)-3-methoxybenzamide] | ≤ 2 nM |
| COc1cc(C(=O)NC2CNC2)c(F)cc1Nc1ncc2c(n1)N(C1CCCC1)CC(F)(F)C(=O)N2C [Compound 130, N-(azetidin-3-yl)-4-(9-cyclopentyl-7,7-difluoro-5-methyl-6-oxo-6,7,8,9-tetrahydro-5H-pyrimido[4,5-b][1,4]diazepin-2-ylamino)-2-fluoro-5-methoxybenzamide] | ≤ 2 nM |
| CCc1cc(C(=O)NC2CCN(C)CC2)ccc1Nc1ncc2c(n1)N(C1CCCC1)CC(F)(F)C(=O)N2C [Compound 27, 4-(9-Cyclopentyl-7,7-difluoro-5-methyl-6-oxo-6,7,8,9-tetrahydro-5H-pyrimido[4,5-b][1,4]diazepin-2-ylamino)-3-ethyl-N-(1-methylpiperidin-4-yl)benzamide] | ≤ 2 nM |
| COc1cc(C(=O)NC2CCN(C(=O)CN(C)C)CC2)ccc1Nc1ncc2c(n1)N(C1CCCC1)CC(F)(F)C(=O)N2C [Compound 11, 4-(9-cyclopentyl-7,7-difluoro-5-methyl-6-oxo-6,7,8,9-tetrahydro-5H-pyrimido[4,5-b][1,4]diazepin-2-ylamino)-N-(1-(2-(dimethylamino)acetyl)piperidin-4-yl)-3-methoxybenzamide] | ≤ 2 nM |
| COc1cc(C(=O)NC2CN(C)C2)ccc1Nc1ncc2c(n1)N(C1CCCC1)CC(C)(F)C(=O)N2C (centres unmarked) [Compound 88, 4-(9-Cyclopentyl-7-fluoro-5,7-dimethyl-6-oxo-6,7,8,9-tetrahydro-5H-pyrimido[4,5-b][1,4]diazepin-2-ylamino)-3-methoxy-N-(1-methylazetidin-3-yl)benzamide] | ≤ 2 nM |
| COc1cc(C(=O)NC2CCN(C)CC2)ccc1Nc1ncc2c(n1)N(C1CCCC1)CC(C)(F)C(=O)N2C (centres unmarked) [Compound 87, 4-(9-cyclopentyl-7-fluoro-5,7-dimethyl-6-oxo-6,7,8,9-tetrahydro-5H-pyrimido[4,5-b][1,4]diazepin-2-ylamino)-3-methoxy-N-(1-methylpiperidin-4-yl)benzamide] | ≤ 2 nM |
| Cc1cc(C(=O)NC2CCN(C)CC2)ccc1Nc1ncc2c(n1)N(C1CCCC1)CC(F)(F)C(=O)N2C [Compound 26, 4-(9-Cyclopentyl-7,7-difluoro-5-methyl-6-oxo-6,7,8,9-tetrahydro-5H-pyrimido[4,5-b][1,4]diazepin-2-ylamino)-3-methyl-N-(1-methylpiperidin-4-yl)benzamide] | > 2 nM |
| COc1cc(C(=O)N[C@H]2CCCN(C)C2)ccc1Nc1ncc2c(n1)N(C1CCCCC1)CC(F)(F)C(=O)N2C [Compound 74, (S)-4-(9-cyclohexyl-7,7-difluoro-5-methyl-6-oxo-6,7,8,9-tetrahydro-5H-pyrimido[4,5-b][1,4]diazepin-2-ylamino)-3-methoxy-N-(1-methylpiperidin-3-yl)benzamide] | ≤ 2 nM |
| CN1CCC(NC(=O)c2ccc(Nc3ncc4c(n3)N(C3CCCC3)CC(F)(F)C(=O)N4C)c(C(F)(F)F)c2)CC1 [Compound 30, 4-(9-cyclopentyl-7,7-difluoro-5-methyl-6-oxo-6,7,8,9-tetrahydro-5H-pyrimido[4,5-b][1,4]diazepin-2-ylamino)-N-(1-methylpiperidin-4-yl)-3-(trifluoromethyl)benzamide] | > 2 nM |
| CCN1CC(NC(=O)c2ccc(Nc3ncc4c(n3)N(C3CCCC3)CC(F)(F)C(=O)N4C)c(OC)c2)C1 [Compound 128, 4-(9-cyclopentyl-7,7-difluoro-5-methyl-6-oxo-6,7,8,9-tetrahydro-5H-pyrimido[4,5-b][1,4]diazepin-2-ylamino)-N-(1-ethylazetidin-3-yl)-3-methoxybenzamide] | ≤ 2 nM |
| CCN1CC(NC(=O)c2cc(OC)c(Nc3ncc4c(n3)N(C3CCCC3)CC(F)(F)C(=O)N4C)cc2F)C1 [Compound 131, 4-(9-cyclopentyl-7,7-difluoro-5-methyl-6-oxo-6,7,8,9-tetrahydro-5H-pyrimido[4,5-b][1,4]diazepin-2-ylamino)-N-(1-ethylazetidin-3-yl)-2-fluoro-5-methoxybenzamide] | ≤ 2 nM |
| CN1C(=O)C(F)(F)CN(C2CCCC2)c2nc(Nc3ccc4c(c3)NC(=O)C4)ncc21 [Compound 19, 9-cyclopentyl-7,7-difluoro-5-methyl-2-(2-oxoindolin-6-ylamino)-8,9-dihydro-5H-pyrimido[4,5-b][1,4]diazepin-6(7H)-one] | > 2 nM |
| COc1cc(C(=O)N[C@@H]2CCCNC2)ccc1Nc1ncc2c(n1)N(C1CCCC1)CC(F)(F)C(=O)N2C [Compound 8, (R)-4-(9-cyclopentyl-7,7-difluoro-5-methyl-6-oxo-6,7,8,9-tetrahydro-5H-pyrimido[4,5-b][1,4]diazepin-2-ylamino)-3-methoxy-N-(piperidin-3-yl)benzamide] | ≤ 2 nM |
| CN1C(=O)C(F)(F)CN(C2CCCC2)c2nc(Nc3cccc4c3OC(F)(F)O4)ncc21 [Compound 136, 9-cyclopentyl-2-(2,2-difluorobenzo[d][1,3]dioxol-4-ylamino)-7,7-difluoro-5-methyl-8,9-dihydro-5H-pyrimido[4,5-b][1,4]diazepin-6(7H)-one] | > 2 nM |
| COc1cc(C(=O)NC2CN(C(C)C)C2)c(F)cc1Nc1ncc2c(n1)N(C1CCCC1)CC(F)(F)C(=O)N2C [Compound 132, 4-(9-cyclopentyl-7,7-difluoro-5-methyl-6-oxo-6,7,8,9-tetrahydro-5H-pyrimido[4,5-b][1,4]diazepin-2-ylamino)-2-fluoro-N-(1-isopropylazetidin-3-yl)-5-methoxybenzamide] | ≤ 2 nM |
| COc1cc(C(=O)NC2CCCNCC2)ccc1Nc1ncc2c(n1)N(C1CCCCC1)CC(F)(F)C(=O)N2C (centres unmarked) [Compound 42, N-(azepan-4-yl)-4-(9-cyclohexyl-7,7-difluoro-5-methyl-6-oxo-6,7,8,9-tetrahydro-5H-pyrimido[4,5-b][1,4]diazepin-2-ylamino)-3-methoxybenzamide] | ≤ 2 nM |
